{"source": "patent US10751390B2", "about": "“Lipidated peptides as neuroprotective agents” (USTAV ORGANICKE CHEMIE A BIOCHEMIE AV CR, V.V.I., priority 2014, dated 2020)", "assay_type_in_all_cases": "in vivo", "key": {"Tau protein [1]": {"system": "Tau protein", "experiment": "Immunohistochemical fluorescent double staining of Tau phosphorylation in CA1 region of hippocampi of MSG mice", "conditions": "6-month-old MSG mice, 14 days SC twice a day; liraglutide 0.2 mg/kg, PrRP31 analog 5 mg/kg; epitopes Thr212 and Ser202/Thr205", "method": "(§1) Groups of MSG mice (n=10 animals per group) were for 14 days SC administered with liraglutide at a dose 0.2 mg/kg, or palmitoylated analog of PrRP31 at a dose 5 mg/kg, or palmitoylated analog with PrRP31 with dichlorophenylalanin in position 31 at a dose 5 mg/kg dissolved in saline, twice a day, at 8 a.m. and 6:00 p.m. Control mice (n=10 animals per group), NMRI and MSG, were injected in the same manner with saline (the volume was always 0.2 ml/mouse).\n(§2) Overnight (15 hours) fasted mice with ad libitum access to water were weighed, and their plasma glucose concentration was measured using Glucocard glucometer. After decapitation, the brains were dissected on ice, and cut between hemispheres. For immunohistochemical staining the half of the brain was fixed for 24 hours in 4% paraformaldehyde and dehydrated in 70% ethanol, afterward. For the western blot (WB) analysis, the hippocampus was dissected from the second half of the brain, and lysed in cold lysis buffer (62.5 mmol·l^−1 Tris-HCl, pH 6.8 with 1% sodium deoxycholate, 1% Triton X-100 Complete, 50 mmol·l^−1 NaF, 1 mmol·l^−1 Na3VO4), homogenized, sonicated 10 minutes and stored at −20° C. The blood plasma was prepared, and stored at −20° C.\nTo verify the results obtained from WB analysis the immunohistochemical staining was performed. Ten micrometer (10 μm) thick sections were prepared at INSERM, Lille, France. […]"}, "[2]": {"system": "insulin signaling cascade (PDK-1, Akt, GSK-3β)", "experiment": "Western blot of insulin signaling cascade in hippocampi of 6-month-old MSG mice after 14-day treatment", "conditions": "14 days SC twice a day, liraglutide 0.2 mg/kg, vs saline", "method": "as §1, §2\n(§3) In homogenized hippocampi the protein level was measured using BCA kit (Pierce, Thermo Fisher Scientific, Rockfor, Ill., USA), then the samples were diluted in sample buffer (62.5 mmol/l Tris-HCl pH 6.8, 10% glycerol, 2% SDS, 0.01% bromfenol blue, 5% merkaptoethanol, 50 mmol/l NaF and 1 mmol/l Na3VO4) to final concentration […]. WB method and analysis of the results were performed according Nagelová et al. (Nagelova et al., 2014)."}, "Tau protein [3]": {"system": "Tau protein", "experiment": "Western blot of Tau phosphorylation in hippocampi of 6-month-old MSG mice after 14-day treatment", "conditions": "14 days SC twice a day, liraglutide 0.2 mg/kg, vs saline", "method": "as §1, §2, §3"}}}
{"substance": "(N-palm)SRTHRHSMEIRTPDINPAWYASRGIRPVGRF-NH2 [palmitoylated analog of PrRP31]", "values": [{"measurement": "Tau phosphorylation in hippocampal region CA1 (fluorescent signal)", "setting": "Tau protein [1]", "result": "decreased"}, {"measurement": "phosphorylation of Akt (Thr308)", "setting": "[2]; PrRP31 analog 5 mg/kg", "result": "more pronounced phosphorylation"}, {"measurement": "activation of kinases implicated in insulin signaling cascade", "setting": "[2]; PrRP31 analogs 5 mg/kg", "result": "Enhanced activation"}, {"measurement": "phosphorylation of GSK-3β (Ser9)", "setting": "[2]; PrRP31 analogs 5 mg/kg", "result": "more pronounced phosphorylation"}, {"measurement": "not-phosphorylated Tau (antibody Tau1)", "setting": "Tau protein [3]; PrRP31 analog 5 mg/kg", "result": "did not show any significant differences among groups"}, {"measurement": "phosphorylation of Tau protein at epitope Ser396", "setting": "Tau protein [3]; PrRP31 analogs 5 mg/kg", "result": "decreased phosphorylation"}, {"measurement": "phosphorylation of Tau protein at epitope Thr212", "setting": "Tau protein [3]; PrRP31 analogs 5 mg/kg", "result": "decreased phosphorylation"}, {"measurement": "phosphorylation of Tau protein at epitope Thr231", "setting": "Tau protein [3]; PrRP31 analogs 5 mg/kg", "result": "decreased phosphorylation"}]}
